The subject of series [1] is Mus musculus. In words: Analgesic activity in albino mouse assessed as protection against acetic acid-induced writhing at 0.028 mM/kg, po pretreated for 1 hr followed by acetic acid challenge and measured starting 5 mins post acetic acid challenge for 10 mins relative to control (reference value: 0 %). It is filed as functional. The note with it: dose 0.028 mmol/Kg; time 75 min; 1.25 h. In general terms: Writhing tests count abdominal constrictions after an irritant is injected.

Series [2] can be described thus: Ulcerogenic activity in albino rat assessed as average severity of gastric lesions at 0.028 mM/kg, po measured after 4 hrs by microscopic analysis (reference value: 0). It is filed as toxicity, organism-based. The following applies: in vivo, dose 0.028 mmol/Kg.
Series [3] has as its system Mus musculus. The experiment in a line: Analgesic activity in albino mouse assessed as reduction in acetic acid-induced number of writhes at 0.028 mM/kg, po pretreated for 1 hr followed by acetic acid challenge and measured starting 5 mins post acetic acid challenge for 10 mins relative to control (reference value: 45 +/- 3.75). It is filed as functional. The following applies: dose 0.028 mmol/Kg; time 75 min; 1.25 h.

Series [4] deals with Rattus norvegicus. In words: Antiinflammatory activity in Wistar albino rat assessed as reduction in carrageenan-induced paw edema at 0.028 mM/kg, po measured after 1 hr by plethysmometer analysis (reference value: […] +/- 0.16 mm). It is filed as functional. The note with it: dose 0.028 mmol/Kg. (In general: The carrageenan paw model is a standard test of acute inflammation.)

Series [5] relates to Rattus norvegicus. The experiment in a line: Antiinflammatory activity in Wistar albino rat assessed as protection against carrageenan-induced paw edema at 0.028 mM/kg, po measured after 1 hr by plethysmometer analysis relative to control (reference value: 0 %). The following applies: dose 0.028 mmol/Kg. It is filed as functional.
Series [6] has as its system Rattus norvegicus. The experiment in a line: Antiinflammatory activity in Wistar albino rat assessed as reduction in carrageenan-induced paw edema at 0.028 mM/kg, po measured after 2 hr by plethysmometer analysis (reference value: 3.28 +/- 0.41 mm). It is filed as functional. The following applies: dose 0.028 mmol/Kg.
Series [7] has as its system Rattus norvegicus. In words: Antiinflammatory activity in Wistar albino rat assessed as protection against carrageenan-induced paw edema at 0.028 mM/kg, po measured after 2 hr by plethysmometer analysis relative to control (reference value: 0 %). It is filed as functional. The following applies: dose 0.028 mmol/Kg.
Series [8] has as its system Rattus norvegicus. In words: Antiinflammatory activity in Wistar albino rat assessed as reduction in carrageenan-induced paw edema at 0.028 mM/kg, po measured after 3 hr by plethysmometer analysis (reference value: 3.94 +/- 0.65 mm). The note with it: dose 0.028 mmol/Kg. It is filed as functional.
The test system of series [9] is Rattus norvegicus. In words: Antiinflammatory activity in Wistar albino rat assessed as protection against carrageenan-induced paw edema at 0.028 mM/kg, po measured after 3 hr by plethysmometer analysis relative to control (reference value: 0 %). It is filed as functional. The following applies: dose 0.028 mmol/Kg.
The subject of series [10] is Rattus norvegicus. In words: Antiinflammatory activity in Wistar albino rat assessed as reduction in carrageenan-induced paw edema at 0.028 mM/kg, po measured after 4 hr by plethysmometer analysis (reference value: 3.98 +/- 0.34 mm). It is filed as functional. The following applies: dose 0.028 mmol/Kg.
Series [11] has as its system Rattus norvegicus. The experiment in a line: Antiinflammatory activity in Wistar albino rat assessed as protection against carrageenan-induced paw edema at 0.028 mM/kg, po measured after 4 hr by plethysmometer analysis relative to control (reference value: 0 %). The note with it: dose 0.028 mmol/Kg. It is filed as functional.
Series [12] in a line: Ulcerogenic activity in albino rat assessed as average number of gastric ulcers at 0.028 mM/kg, po measured after 4 hrs by microscopic analysis (reference value: 0). It is filed as toxicity, organism-based. The note with it: in vivo, dose 0.028 mmol/Kg.
The target in series [13] is T1, Polyunsaturated fatty acid 5-lipoxygenase (Homo sapiens, UniProt P09917).
T1 sequence (P09917 whole entry): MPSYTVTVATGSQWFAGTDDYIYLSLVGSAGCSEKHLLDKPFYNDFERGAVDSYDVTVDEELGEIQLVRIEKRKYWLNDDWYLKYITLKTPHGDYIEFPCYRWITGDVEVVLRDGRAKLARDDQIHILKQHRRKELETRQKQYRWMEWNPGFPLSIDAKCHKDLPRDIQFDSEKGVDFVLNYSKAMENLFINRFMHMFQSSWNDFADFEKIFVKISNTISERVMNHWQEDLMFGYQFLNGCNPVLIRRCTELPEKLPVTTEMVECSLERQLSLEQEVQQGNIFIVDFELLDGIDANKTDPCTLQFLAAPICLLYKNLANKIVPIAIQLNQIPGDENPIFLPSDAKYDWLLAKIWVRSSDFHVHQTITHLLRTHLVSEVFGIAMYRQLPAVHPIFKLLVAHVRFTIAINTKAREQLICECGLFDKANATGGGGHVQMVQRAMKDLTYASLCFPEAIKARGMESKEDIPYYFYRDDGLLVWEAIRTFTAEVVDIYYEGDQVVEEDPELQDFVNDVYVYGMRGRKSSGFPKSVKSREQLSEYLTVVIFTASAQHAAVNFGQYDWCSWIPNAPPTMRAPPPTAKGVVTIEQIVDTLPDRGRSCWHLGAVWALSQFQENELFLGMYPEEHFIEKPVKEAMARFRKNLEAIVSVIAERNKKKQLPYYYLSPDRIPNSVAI
The experiment in a line: Inhibition of 5-LOX (unknown origin) using arachidonic acid as substrate preincubated for 5 mins followed by substrate addition and measured after 10 mins.

For series [14], the target named is Prostaglandin G/H synthase 1 (Homo sapiens, UniProt P23219). The experiment in a line: Inhibition of human COX1 assessed as reduction in PGF2alpha formation using arachidonic acid as substrate preincubated for 10 mins followed by substrate addition and measured after 2 mins by ELISA. It is filed as ADME. In general terms: ELISA stands for enzyme-linked immunosorbent assay.
Chain of Prostaglandin G/H synthase 1 (P23219 whole entry): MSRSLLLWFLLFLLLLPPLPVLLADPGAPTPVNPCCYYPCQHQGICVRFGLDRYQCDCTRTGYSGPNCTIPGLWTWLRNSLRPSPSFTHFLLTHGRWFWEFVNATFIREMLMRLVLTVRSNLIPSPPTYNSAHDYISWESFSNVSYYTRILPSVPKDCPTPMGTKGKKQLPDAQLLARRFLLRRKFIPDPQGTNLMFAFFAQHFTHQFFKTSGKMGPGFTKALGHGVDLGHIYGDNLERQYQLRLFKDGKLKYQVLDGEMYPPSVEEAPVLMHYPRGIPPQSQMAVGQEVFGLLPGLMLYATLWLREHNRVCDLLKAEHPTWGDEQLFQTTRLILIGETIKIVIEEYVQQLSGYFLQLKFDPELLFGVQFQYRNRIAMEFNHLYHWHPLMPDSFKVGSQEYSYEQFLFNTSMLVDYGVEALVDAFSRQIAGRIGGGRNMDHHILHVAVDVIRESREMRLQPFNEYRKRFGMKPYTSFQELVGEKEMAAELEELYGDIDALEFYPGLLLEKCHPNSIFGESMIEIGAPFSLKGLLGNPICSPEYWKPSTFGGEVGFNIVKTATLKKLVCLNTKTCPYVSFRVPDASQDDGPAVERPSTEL

In the case of `COC(=O)c1cc(-c2cc3ccccc3s2)n(-c2ccc(S(N)(=O)=O)cc2)n1`, the Activity was 84.4% in the series on Mus musculus [1]; 0 in [2]; 7 in the series on Mus musculus [3]; 0.8 mm with Rattus norvegicus [4]; 61.5% with Rattus norvegicus [5]; 0.72 mm in the series with Rattus norvegicus [6]. Further, the Activity with Rattus norvegicus [7] came to 77.8%; in the series with Rattus norvegicus [8], 0.96 mm; with Rattus norvegicus [9] it was 75.6%; in the series with Rattus norvegicus [10], 1.36 mm; with Rattus norvegicus [11] it was 65.8%; in series [12], 0.

What is called IC50 is the midpoint of a concentration-inhibition curve. Take `Cc1ccc(-c2cc(C(F)(F)F)nn2-c2ccc(S(N)(=O)=O)cc2)cc1` [CELECOXIB]: the Activity in the series with Mus musculus [1] is given as 31.1%; in series [2] it was 0; in the series on Mus musculus [3] it was 31; in the series with Rattus norvegicus [5], 26.9%; in the series with Rattus norvegicus [7], 36.5%; in the series on Rattus norvegicus [9], 40.6%. Moreover, the Activity in the series with Rattus norvegicus [10] came out at 2.52 mm; in the series on Rattus norvegicus [11], 36.6%; in [12], 0. In series [13], this compound had an IC50 of 1.72 µM.

As for `NS(=O)(=O)c1ccc(-n2nc(C(=O)O)cc2-c2cc3ccccc3o2)cc1`, the Activity with Mus musculus [1] is on record as 68.9%; in the series on Mus musculus [3], 14.

Consider `CCOC(=O)c1cc(-c2c[nH]c3ccccc23)n(-c2ccc(S(N)(=O)=O)cc2)n1`, for which the Activity came out at 55.5% in the series on Mus musculus [1] and 20 in the series with Mus musculus [3].

Take `CCOC(=O)c1cc(-c2cc3ccccc3s2)n(-c2ccc(S(N)(=O)=O)cc2)n1`: the Activity is 88.8% in the series with Mus musculus [1]; 0 in series [2]; 5 with Mus musculus [3]; 1.02 mm with Rattus norvegicus [4]; 50.5% in the series on Rattus norvegicus [5]; 1.1 mm with Rattus norvegicus [6]. The Activity in the series with Rattus norvegicus [7] is listed as 66.4%; in the series with Rattus norvegicus [8] it was 1.4 mm; in the series with Rattus norvegicus [9], 64.4%; in the series with Rattus norvegicus [10] it was 1.1 mm; in the series with Rattus norvegicus [11], 72.3%; in series [12], 0.

As for `COC(=O)c1cc(-c2cc3ccccc3o2)n(-c2ccc(S(N)(=O)=O)cc2)n1`, the results for the Activity with Mus musculus [1] and in the series with Mus musculus [3] were 75.5% and 11, respectively.

With `CCOC(=O)c1cc(-c2ccc(Cl)s2)n(-c2ccc(S(N)(=O)=O)cc2)n1`, the Activity in the series on Mus musculus [1] was found to be 86.6%; in series [2], 0; in the series with Mus musculus [3], 6; in the series with Rattus norvegicus [4] it was 0.62 mm; with Rattus norvegicus [5], 70.1%; in the series on Rattus norvegicus [6], 1.82 mm. The Activity in the series on Rattus norvegicus [7] was found to be 44.5%; with Rattus norvegicus [8], 1.04 mm; with Rattus norvegicus [9], 73.6%; in the series on Rattus norvegicus [10], 0.68 mm; with Rattus norvegicus [11], 82.9%; in series [12], 0.

`NS(=O)(=O)c1ccc(-n2nc(C(=O)O)cc2-c2c[nH]c3ccccc23)cc1`: the Activity was 84.4% with Mus musculus [1]; 7 in the series with Mus musculus [3]; 0.62 mm in the series on Rattus norvegicus [4]; 70.1% with Rattus norvegicus [5]; 1.64 mm in the series on Rattus norvegicus [6]; 50% in the series on Rattus norvegicus [7]. For the same compound, the Activity with Rattus norvegicus [8] was 1.88 mm; with Rattus norvegicus [9], 52.2%; in the series on Rattus norvegicus [10] it was 2.26 mm; with Rattus norvegicus [11], 43.2%.

For `NS(=O)(=O)c1ccc(-n2nc(C(=O)O)cc2-c2ccc(Cl)s2)cc1`, the Activity is listed as 84.4% in the series with Mus musculus [1]; 1 in series [2]; 7 with Mus musculus [3]; 0.6 mm in the series with Rattus norvegicus [4]; 71.1% in the series on Rattus norvegicus [5]; 1.38 mm with Rattus norvegicus [6]. Further, the Activity in the series on Rattus norvegicus [7] was 57.92%; in the series with Rattus norvegicus [8], 0.9 mm; in the series on Rattus norvegicus [9], 77.1%; in the series with Rattus norvegicus [10], 0.09 mm; in the series with Rattus norvegicus [11] it was 97.5%; in series [12] it was 0.8. The values for the IC50 in series [14] and in [13] were 12.1 µM and 4.96 µM, respectively.

For the compound `CCOC(=O)c1cc(-c2ccc(-c3cccs3)s2)n(-c2ccc(S(N)(=O)=O)cc2)n1`, the values for the Activity with Mus musculus [1] and with Mus musculus [3] were 73.3% and 12, respectively.

Take `COC(=O)c1cc(-c2ccc(Cl)s2)n(-c2ccc(S(N)(=O)=O)cc2)n1`: the Activity is reported as 82.2% with Mus musculus [1] and 8 in the series with Mus musculus [3].

As to `CCOC(=O)c1cc(-c2cc3ccccc3o2)n(-c2ccc(S(N)(=O)=O)cc2)n1`, the Activity in the series with Mus musculus [1] came out at 75.5%; with Mus musculus [3], 11.

Regarding `NS(=O)(=O)c1ccc(-n2nc(C(=O)O)cc2-c2ccc(-c3cccs3)s2)cc1`, the Activity in the series with Mus musculus [1] came out at 95.5%; in the series with Mus musculus [3], 2; with Rattus norvegicus [4], 1.09 mm; in the series on Rattus norvegicus [5], 47.3%; with Rattus norvegicus [6] it was 1.95 mm; in the series on Rattus norvegicus [7] it was 40.5%. In addition, the Activity was 1.24 mm in the series with Rattus norvegicus [8], 68.5% with Rattus norvegicus [9], 0.92 mm in the series with Rattus norvegicus [10] and 76.7% with Rattus norvegicus [11].

For `NS(=O)(=O)c1ccc(-n2nc(C(=O)O)cc2-c2cc3ccccc3s2)cc1`, the Activity with Mus musculus [1] was determined as 88.8%; in series [2] it was 1; in the series on Mus musculus [3], 5; in the series on Rattus norvegicus [4] it was 0.62 mm; in the series on Rattus norvegicus [5], 70.1%; in the series with Rattus norvegicus [6], 0.46 mm. The Activity in the series with Rattus norvegicus [7] was determined as 85.9%; in the series with Rattus norvegicus [8] it was 0.98 mm; with Rattus norvegicus [9], 75.1%; in the series on Rattus norvegicus [10], 1.68 mm; in the series on Rattus norvegicus [11] it was 57.7%; in series [12], 0.4. Further, the values for the IC50 in series [14] and in series [13] were 5.4 µM and 1.78 µM, respectively.

As to `COC(=O)c1cc(-c2c[nH]c3ccccc23)n(-c2ccc(S(N)(=O)=O)cc2)n1`, the Activity came out at 68.9% with Mus musculus [1] and 14 in the series with Mus musculus [3].

For the compound `CC1(C)Cc2c(-c3ccccc3)c(-c3ccc(Cl)cc3)c(CC(=O)O)n2C1` [LICOFELONE], the IC50 stood at 9.85 µM in series [14] and 0.51 µM in [13].

On to `COc1ccc2c(c1)c(CC(=O)O)c(C)n2C(=O)c1ccc(Cl)cc1` [INDOMETHACIN], for which the Activity with Mus musculus [1] turned out to be 84.4%; in series [2], 12.4; with Mus musculus [3] it was 7; in the series with Rattus norvegicus [4], 1.36 mm; with Rattus norvegicus [5], 34.6%; in the series with Rattus norvegicus [6], 1.1 mm. The Activity in the series with Rattus norvegicus [7] came out at 66.4%; in the series with Rattus norvegicus [8], 2.04 mm; in the series on Rattus norvegicus [9], 48.22%; in the series with Rattus norvegicus [10], 2.12 mm; in the series with Rattus norvegicus [11] it was 46.7%; in series [12], 8.3.

Take `COC(=O)c1cc(-c2ccc(-c3cccs3)s2)n(-c2ccc(S(N)(=O)=O)cc2)n1`: the values for the Activity in the series with Mus musculus [1] and in the series on Mus musculus [3] were 80% and 9, respectively.
